Measured values published in US20070249555A1, “Use of Atp Analogues for Treatment of Cardiovascular Diseases” (INSTITUT NATIONAL DE LA SANTE ET DE LA RECHERCHE MEDICALE …, priority 2004, published 2007).

Key:
HepG2 cells = experiment: TG-HDL2 internalization by HepG2 cells; format: cell-based, human; settings: 10 min at 37° C.
Procedure: Cells were incubated for 10 minutes at 37° C. with 75 μg/ml^125I-TG-HDL2 without (control) or with apolipoprotein A-I 10 μg/ml (a), ADP 100 nM (b), AR-C69931MX 100 nM (c), ADP 100 nM+AR-C69931MX 100 nM (d), ADP 100 nM+[…] 100 μM (e), ADP 100 nM+MRS2179 10 μM (f). […] Internalization assays were performed as described in Guendouzi et al., (Biochemistry, 1998, 37: 14974-80) on HepG2 cells, obtained from the American Type Culture Collection ([…]). Cells were incubated for 10 minutes at 37° C. with 75 μg/ml of either ^125I-TG-HDL2, ^125I-HDL3 or ^125I-LDL. After washing and dissociation at 4° C. in phosphate buffered saline (PBS), cell radioactivity was determined using a Wallac 1261 multigamma apparatus. Prior experiments, cells were plated in polylysine-coated 24-multiwell plates (Falcon) at 4×10^4 cells per well. Cells were grown in Dulbecco's modified Eagles medium supplemented with 10% fetal calf serum, 100 units/ml penicillin, and 100 μg/ml streptomycin at 37° C. in a 5% CO2 and 95% air incubator. Medium was changed every 2 or 3 days, and the cells were subcultured every 7-8 days. Results are expressed as a percentage of internalization with respect to the control value (set at 0). Control corresponded to a basal value of internalization, amounting to 400 ng, 300 ng, 200 ng of TG-HDL2, HDL3 and LDL per mg of cells protein respectively for 10 minutes. Data as a mean ±SEM of at least 7, 5, 6 independent experiments, for TG-HDL2, HDL3 and LDL respectively.

human P2Y13 receptor [1] = target: T1, human P2Y13 receptor (Homo sapiens, UniProt Q9BPV8); experiment: HDL3 internalization by HepG2 cells after P2Y13 receptor silencing by siRNA; format: cell-based; settings: 75 μg/ml 125I-HDL3, ADP 100 nM, AR-C69931MX 100 nM
T1 construct: host or cells: HepG2
T1 sequence (Q9BPV8 1-354): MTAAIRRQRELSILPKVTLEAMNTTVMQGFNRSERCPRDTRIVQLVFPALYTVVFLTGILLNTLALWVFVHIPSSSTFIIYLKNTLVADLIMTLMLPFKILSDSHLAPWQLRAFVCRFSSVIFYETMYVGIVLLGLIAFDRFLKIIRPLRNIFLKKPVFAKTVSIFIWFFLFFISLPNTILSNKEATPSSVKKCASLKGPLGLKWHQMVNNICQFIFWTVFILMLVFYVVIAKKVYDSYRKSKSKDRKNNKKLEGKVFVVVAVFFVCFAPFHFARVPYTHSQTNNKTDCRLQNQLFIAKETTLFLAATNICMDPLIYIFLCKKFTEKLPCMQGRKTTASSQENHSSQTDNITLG
Procedure: Cells were transiently transfected with siRNA designated to human P2Y13 receptor (column c, d, e). 48 hours later, cells were incubated for 10 minutes at 37° C. with 75 μg/ml ^125I-HDL3 without (control) or with ADP 100 nM (a and c), AR-C69931MX 100 nM (b and d), PBS (e) (n>5); (*) p<0.05 (unpaired t-test).
(§1) Internalization assays were performed as described in Guendouzi et al., (Biochemistry, 1998, 37: 14974-80) on HepG2 cells, obtained from the American Type Culture Collection ([…]). Cells were incubated for 10 minutes at 37° C. with 75 μg/ml of either ^125I-TG-HDL2, ^125I-HDL3 or ^125I-LDL. After washing and dissociation at 4° C. in phosphate buffered saline (PBS), cell radioactivity was determined using a Wallac 1261 multigamma apparatus.
The silencing of the different P2Y receptors were carried-out using the siRNA technique. The siRNA sequenced targeting human P2Y13 receptor (Gene Bank GB/EMBL/DDBJ accession number AF295368) was from position 406 or 359 relative to the start codon. […]
Results are expressed as a percentage of internalization with respect to the control value (set at 0). […]

human P2Y13 receptor [2] = target: T1, human P2Y13 receptor; experiment: TG-HDL2 internalization by HepG2 cells after P2Y13 receptor silencing by siRNA; format: cell-based; settings: HepG2, P2Y13 siRNA 100 nM, 48 h; apoA-I 10 μg/ml, ADP 100 nM, AR-C69931MX 100 nM
Procedure: Experiment was performed as in FIG. 2A with non-specific control siRNA (a, b, c) or with siRNA directed to human P2Y13 receptor (d, e, f, g) (n>7); (*) p<0.05 (unpaired t-test).
as §1
The silencing of the different P2Y receptors were carried-out using the siRNA technique. The siRNA sequenced targeting human P2Y13 receptor (Gene Bank GB/EMBL/DDBJ accession number AF295368) was from position 406 or 359 relative to the start codon. The siRNA duplex (21-nt-RNAs) in deprotected and desalted form, the siRNA targeting human P2Y1 receptor (a mix of 4 siRNAs, M-005689), and the non-specific control siRNA (D-001206-01) were purchased from Dharmacon Inc. Subconfluent HepG2 cells were transiently transfected with siRNAs (final concentration, 100 nM) using Oligofectamine™ according to the manufacturer's protocole (Invitrogen). Cells were usually assayed 48 hours after transfection. Specific silencing effect was confirmed by at least three independent experiments.
Results are expressed as a percentage of internalization with respect to the control value (set at 0). Control corresponded to a basal value of internalization, amounting to 400 ng, 300 ng, 200 ng of TG-HDL2, HDL3 and LDL per mg of cells protein respectively for 10 minutes. Data as a mean ±SEM of at least 7, 5, 6 independent experiments, for TG-HDL2, HDL3 and LDL respectively.

Compound	internalization of 125I-TG-HDL2 by HepG2 cells, increase above control cells (HepG2 cells; 75 μg/ml 125I-TG-HDL2, apoA-I 10 μg/ml, ADP 100 nM, AR-C69931MX 100 nM alone) [%]	effect of P2Y13 receptor silencing on HDL3 internalization after stimulation (human P2Y13 receptor [1])	effect of P2Y13 receptor silencing on TG-HDL2 endocytosis after stimulation (human P2Y13 receptor [2])	ADP-dependent TG-HDL2 internalization, increase above control cells (HepG2 cells; ADP 100 nM + AR-C69931MX 100 nM)
Nc1ncnc2c1ncn2[C@@H]1O[C@H](COP(=O)(O)OP(=O)(O)O)[C@@H](O)[C@H]1O [ADP, adenosine diphosphate, reference compound]	20	strong inhibition	dramatic inhibition	–
CSCCNc1nc(SCCC(F)(F)F)nc2c1ncn2[C@@H]1O[C@H](COP(=O)(O)OP(=O)(O)C(Cl)(Cl)P(=O)(O)O)[C@@H](O)[C@H]1O [AR-C69931MX, N-[2-(methylthio)ethyl]-2-[(3,3,3-trifluoropropyl)thio]-5′-adenylic acid, monoanhydride with dichloromethylenebisphosphonic acid]	–	strong inhibition	dramatic inhibition	over 30%
